Tests used:
[1] = molecular target: GRIA1 (brain membrane fraction of S/N cows); assay: [3H]AMPA ligand binding assay, membrane fractions from brain of S/N cows; set-up: species or system bovine; settings: saturation binding of [3H]AMPA 1-200 nM, n = 3
Procedure: (§1) Membrane fractions were extracted from bovine brain as described previously, and 25 µg of protein were resolved by SDS-PAGE and transferred to polyvinylidene difluoride membranes. The blots were incubated with rabbit polyclonal antibody to GRIA1 (1∶1000, AB1504, Millipore, Tokyo, Japan) or actin (1∶200, A2066, Sigma-Aldrich, St. Louis, MO).
(§2) Protein (500 µg/ml) was used for a ligand binding assay with [^3H] AMPA (392.2 GBq/mmol, 1–200 nM) as described previously. Non-specific binding obtained by incubating 1 mM L- glutamate in the binding assay was subtracted from total binding to yield specific [^3H] AMPA- binding.

[2] = tested on: LH release; set-up: method as in PMID 9331548; settings: infusion into the third cerebral ventricle, ovariectomized estrogen-primed adult female rats; cited from earlier work
[3] = molecular target: GRIA1^Asn (brain membrane fraction of N/N cows); assay: [3H]AMPA ligand binding assay, membrane fractions from brain of N/N cows; set-up: species or system bovine; settings: saturation binding of [3H]AMPA 1-200 nM, n = 3
Procedure: as §1, §2

[4] = molecular target: GRIA1^Ser (brain membrane fraction of S/S cows); assay: [3H]AMPA ligand binding assay, membrane fractions from brain of S/S cows; set-up: species or system bovine; settings: saturation binding of [3H]AMPA 1-200 nM, n = 3
Procedure: as §1, §2

[5] = molecular target: T1, GRIA1^Asn (Bos taurus, UniProt G0T3G6, S306N); assay: Whole-cell current responses in Xenopus oocytes injected with GRIA1^Asn mRNA; assay type: cell-based, bovine; settings: Xenopus oocytes expressing GRIA1^Asn alone, glutamate 1-300 µM, n = 9; read-out: EC50 of current response
T1 construct: expressed in transfected cells; host or cells: Xenopus oocytes (mRNA injection)
T1 sequence (G0T3G6 19-906 S306N): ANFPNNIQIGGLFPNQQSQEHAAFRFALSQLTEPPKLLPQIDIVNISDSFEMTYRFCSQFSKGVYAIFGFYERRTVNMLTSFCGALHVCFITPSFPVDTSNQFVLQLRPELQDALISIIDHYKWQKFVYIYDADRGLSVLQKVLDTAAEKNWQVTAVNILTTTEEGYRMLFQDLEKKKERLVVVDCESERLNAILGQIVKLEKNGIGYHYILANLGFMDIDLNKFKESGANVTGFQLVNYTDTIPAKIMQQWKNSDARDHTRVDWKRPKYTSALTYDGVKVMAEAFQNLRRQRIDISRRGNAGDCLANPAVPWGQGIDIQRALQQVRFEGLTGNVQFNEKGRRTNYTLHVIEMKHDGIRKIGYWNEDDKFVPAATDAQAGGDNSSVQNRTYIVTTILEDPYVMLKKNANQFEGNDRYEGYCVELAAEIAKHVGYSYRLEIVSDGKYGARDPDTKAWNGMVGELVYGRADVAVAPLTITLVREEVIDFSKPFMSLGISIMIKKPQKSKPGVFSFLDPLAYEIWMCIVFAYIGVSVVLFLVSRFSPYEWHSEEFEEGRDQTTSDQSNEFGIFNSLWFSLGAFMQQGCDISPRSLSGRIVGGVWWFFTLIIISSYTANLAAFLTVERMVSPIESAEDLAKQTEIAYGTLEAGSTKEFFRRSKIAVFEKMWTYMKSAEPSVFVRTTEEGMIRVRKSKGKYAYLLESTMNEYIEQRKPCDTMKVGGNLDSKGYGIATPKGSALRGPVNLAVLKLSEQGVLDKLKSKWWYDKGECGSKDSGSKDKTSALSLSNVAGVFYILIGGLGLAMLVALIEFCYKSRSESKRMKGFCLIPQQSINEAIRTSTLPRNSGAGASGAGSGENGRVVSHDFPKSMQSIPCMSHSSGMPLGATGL
Procedure: (§3) Bovine GRIA1 mRNAs were synthesized using mMESSAGE mMACHINE® SP6 Kit (Applied Biosystems) and injected into Xenopus oocytes as described previously. Whole-cell current responses to 1, 3, 10, 30, 100, and 300 µM glutamate were recorded as described previously.

[6] = tested on: GT1-7 cells expressing GRIA1^Ser; assay: GnRH release from GT1-7 cells expressing GRIA1 (enzyme immunoassay); assay type: cell-based, murine; settings: 100 µM glutamate for 30 min, GT1-7 cells expressing GRIA1^Ser compared with GRIA1^Asn
Procedure: We amplified bovine GRIA1 that had been cloned into pTracer-nucGFP with primers GRIA1InFusionF and R and then switched into pCAGGS (N-R) using the In-Fusion™ Advantage PCR Cloning Kit (Takara Bio Inc., Shiga, Japan) to produce HA-tagged protein under the control of a ubiquitous strong promoter that was based on the β-actin promoter.
GT1-7 cells were cultured in six-well dishes coated with poly-L-ornithine (BD Biocoat [PLO/LM] 354658, Becton Dickinson and Company, Franklin Lakes, NJ) with conditioned-Dulbecco's modified Eagles medium (C-MEM), which was comprised of a 1∶1 mixture of conditioned medium from mouse embryonic astrocytes in primary culture and Dulbecco's modified Eagles medium with high glucose (Invitrogen) supplemented with 10% fetal calf serum, penicillin (100 U/ml), and streptomycin (100 µg/ml). When cells reached 90 % confluence, C-MEM was replaced with Opti-MEM (Invitrogen) and transfected with Lipofectamine 2000 (Invitrogen) for 24 h.
The next day, confluent GT1-7 cells were treated as described previously. The concentration of GnRH in the media was assayed using an LH-releasing hormone enzyme immunoassay kit (S-1217, Peninsula Laboratories, LLC, San Carlos, CA) according to the manufacturer's instructions.

[7] = molecular target: T2, GRIA1^Ser (Bos taurus, UniProt G0T3G6); assay: Whole-cell current responses in Xenopus oocytes injected with GRIA1^Ser mRNA; assay type: cell-based, bovine; settings: Xenopus oocytes expressing GRIA1^Ser alone, glutamate 1-300 µM, n = 10; read-out: EC50 of current response
T2 construct: expressed in transfected cells; host or cells: Xenopus oocytes (mRNA injection)
T2 sequence (G0T3G6 19-906): as the sequence (G0T3G6 19-906 S306N) above, with N288S counted along it
Procedure: as §3

[8] = tested on: GRIA1^Asn with GRIA2; assay: Whole-cell current responses in Xenopus oocytes coexpressing GRIA1^Asn with GRIA2; assay type: cell-based, bovine; settings: Xenopus oocytes expressing GRIA1^Asn coexpressed with GRIA2, n = 8; read-out: EC50 of current response
Procedure: as §3

[9] = tested on: GRIA1^Ser with GRIA2; assay: Whole-cell current responses in Xenopus oocytes coexpressing GRIA1^Ser with GRIA2; assay type: cell-based, bovine; settings: Xenopus oocytes expressing GRIA1^Ser coexpressed with GRIA2, n = 8; read-out: EC50 of current response
Procedure: as §3

| SMILES | Kd [1] [µM] | LH release [2] | Kd [3] [µM] | Kd [4] [µM] | EC50 [5] [µM] | GnRH release [6] | EC50 [7] [µM] | EC50 [8] [µM] | EC50 [9] [µM] |
| --- | --- | --- | --- | --- | --- | --- | --- | --- | --- |
| Cc1o[nH]c(=O)c1CC(N)C(=O)O (stereo not drawn) [AMPA] | 0.0436 | induces LH release | 0.0596 | 0.0277 | – | – | – | – | – |
| N[C@@H](CCC(=O)O)C(=O)O [glutamate] | – | – | – | – | 10.7 | induced the release of more GnRH than that from cells expressing GRIA1^Asn | 4.5 | 10.4 | 4.9 |

— publication PMC2972219, “Ionotropic Glutamate Receptor AMPA 1 Is Associated with Ovulation Rate” (PLoS ONE, 2010)
